Target: T1, Cas13a (Leptotrichia wadei, UniProt U2PSH1)
T1 construct: His-tag (N, cleaved yes); twinstrep (N, cleaved yes); SUMO (N, cleaved yes); made in house; host or cells: BL21(DE3) Rosetta Escherichia coli
T1 sequence (U2PSH1 1-1182): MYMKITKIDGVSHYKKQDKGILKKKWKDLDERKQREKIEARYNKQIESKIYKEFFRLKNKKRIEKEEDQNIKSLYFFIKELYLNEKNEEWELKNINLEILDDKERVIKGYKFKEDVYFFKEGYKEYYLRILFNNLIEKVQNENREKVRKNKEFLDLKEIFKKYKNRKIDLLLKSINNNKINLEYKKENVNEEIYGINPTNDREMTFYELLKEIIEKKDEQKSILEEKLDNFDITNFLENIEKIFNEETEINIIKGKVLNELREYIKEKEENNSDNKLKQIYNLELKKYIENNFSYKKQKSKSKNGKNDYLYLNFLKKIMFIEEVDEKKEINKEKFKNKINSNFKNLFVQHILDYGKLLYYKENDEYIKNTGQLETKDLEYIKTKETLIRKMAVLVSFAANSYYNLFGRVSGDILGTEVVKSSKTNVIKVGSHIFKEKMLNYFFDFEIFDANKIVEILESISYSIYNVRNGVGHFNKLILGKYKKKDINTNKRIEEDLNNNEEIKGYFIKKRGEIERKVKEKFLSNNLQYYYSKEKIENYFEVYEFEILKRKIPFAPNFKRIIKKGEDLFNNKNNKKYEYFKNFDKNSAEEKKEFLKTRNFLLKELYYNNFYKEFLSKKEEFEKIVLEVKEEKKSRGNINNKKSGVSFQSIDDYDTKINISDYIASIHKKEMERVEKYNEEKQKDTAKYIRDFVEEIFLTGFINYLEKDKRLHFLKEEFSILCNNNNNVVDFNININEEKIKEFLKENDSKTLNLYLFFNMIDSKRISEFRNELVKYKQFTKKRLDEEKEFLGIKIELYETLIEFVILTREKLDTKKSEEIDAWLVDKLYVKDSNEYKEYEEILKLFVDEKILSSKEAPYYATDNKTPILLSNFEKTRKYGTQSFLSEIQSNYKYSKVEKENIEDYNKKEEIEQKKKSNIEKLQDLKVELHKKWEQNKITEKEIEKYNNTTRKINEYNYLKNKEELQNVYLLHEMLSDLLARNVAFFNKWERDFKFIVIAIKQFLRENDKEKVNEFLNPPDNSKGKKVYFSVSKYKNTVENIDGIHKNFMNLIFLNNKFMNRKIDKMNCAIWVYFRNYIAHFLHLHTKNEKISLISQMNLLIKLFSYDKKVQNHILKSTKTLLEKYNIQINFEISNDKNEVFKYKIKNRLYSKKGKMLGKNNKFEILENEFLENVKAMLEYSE
Assay: SHERLOCK reactions without RNAP at varying sodium fluoride
Type: biochemical, Leptotrichia wadeii
Conditions: FIG. 6A
Description: Purification of LwaCas13a protein. LwaCas13a from Leptotrichia wadeii has a specific preference for collaterally cleaving poly-uracil ssRNA oligos and was used for various experiments in these examples. LwaCas13a was purified as follows. The expression plasmid (pC013) encoded LwaCas13a with an N-terminal His-tag, followed by twinstrep and SUMO tags. The plasmid was transformed into BL21(DE3) Rosetta Escherichia coli cells. 20 mL bacterial culture was grown overnight in Luria broth (LB) medium supplemented with 100 μM carbenicillin that was used to inoculate 1 L cultures in LB medium. The culture was shaken at 37° C. until the OD600 reached around 0.6. The culture was cooled down to approximately 20° C. in a cold water bath and protein expression was induced by adding 0.5 mM Isopropyl beta-D-1-thiogalactopyronoside (IPTG). The culture was grown in a 20° C. shaker for 16 hours. […] Protein concentration was determined using the absorbance at 280 nm and an extinction coefficient of 119800 M^−1 cm^−1; 1.5 mL of 47 μM protein was obtained from 2 liters of culture. […]
In other methods, SHERLOCK reactions were performed with purified target RNA as input, the concentration of the components, order of addition of components and measurement of fluorescence was carried out the same way as in the SPRINT reactions. […]

With [F-].[Na+] [fluoride, sodium fluoride] the “fluoride concentration at which Cas13a activity sharply dropped” value was “around 600 μM”.

Reference: patent US20230279482A1, “COMPOSITIONS, METHODS AND USES FOR QUANTIFYING TRANSCRIPTION AND BIOSENSING OF SMALL MOLECULES USING A NOVEL TYPE VI CRISPR-CAS ASSAY” (THE REGENTS OF THE UNIVERSITY OF COLORADO, A BODY CORPORATE, priority 2020, published 2023)
